Assay results: PubChem BioAssay (NCI)
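Where inhibition never reached the appropriate level, the endpoint shown equals the highest concentration tested. Otherwise, values were interpolated linearly from a five-concentration, 48-hour dose response in 96-well plates. GI50: concentration for 50% inhibition of growth. At the TGI there is no net growth.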

Key:
Assay in all cases: inhibition of tumour cell growth, NCI panel, 48 h
[1] = test system: EKVX NSCLC
[2] = test system: UACC-62 melanoma
[3] = test system: NCI-H23 lung
[4] = test system: IGROV1 ovarian
[5] = test system: HCT-15 colon
[6] = test system: RXF 393 renal
[7] = test system: COLO 205 colon
[8] = test system: SW-620 colon
[9] = test system: NCI-H522 lung
[10] = test system: ACHN renal

| SMILES | GI50 [1] | TGI [1] | TGI [2] | GI50 [3] | TGI [3] | GI50 [4] | TGI [4] | GI50 [5] | TGI [5] | GI50 [6] | TGI [6] | GI50 [7] | TGI [7] | GI50 [8] | TGI [8] | GI50 [9] | TGI [9] | GI50 [10] | TGI [10] | GI50 [2] |
| --- | --- | --- | --- | --- | --- | --- | --- | --- | --- | --- | --- | --- | --- | --- | --- | --- | --- | --- | --- | --- |
| c1cc(N2CCN(c3ccc(C4=NCCCN4)cc3)CC2)ccc1C1=NCCCN1 | > 100 µM | > 100 µM | > 35.3 µM | 30 µM | > 100 µM | > 100 µM | > 100 µM | > 100 µM | > 100 µM | > 35.8 µM | > 100 µM | > 45.6 µM | > 100 µM | > 62.6 µM | > 100 µM | > 55.9 µM | > 100 µM | > 69.9 µM | > 100 µM | – |
| Cc1[nH]c(-c2cc(N)ccc2Cl)c2c1C(=O)CCCC2 | 6.09 µM | > 100 µM | 7.2 µM | 5.06 µM | 64.6 µM | 2.58 µM | 29.1 µM | 3.3 µM | > 100 µM | 2.06 µM | 6.06 µM | 3.91 µM | > 100 µM | 12.1 µM | 55.6 µM | 1.13 µM | 15.2 µM | 3.42 µM | > 100 µM | 0.809 µM |
| CC(CO)(Nc1ccc([N+](=O)[O-])cc1[N+](=O)[O-])C(=O)O (stereo unspecified) | – | 71.3 µM | > 100 µM | – | 62.4 µM | – | 53.7 µM | – | 31.4 µM | – | 24.6 µM | – | 32.8 µM | – | 33.4 µM | – | 39 µM | – | 32.7 µM | – |
| O=C1C=C(O)C(=Cc2c(O)cc(O)cc2O)C(O)=C1 | – | > 100 µM | > 100 µM | – | > 100 µM | – | > 100 µM | – | > 100 µM | – | > 100 µM | – | > 100 µM | – | > 100 µM | – | > 100 µM | – | – | – |
| COc1cc2ncc3c(nc4sccn43)c2cc1OC | 20.7 µM | > 100 µM | > 100 µM | 80.4 µM | > 100 µM | – | – | 11.1 µM | > 100 µM | > 100 µM | > 100 µM | 38.2 µM | > 100 µM | 41.9 µM | > 100 µM | 86.1 µM | > 100 µM | 10.2 µM | 26 µM | 22.9 µM |
| Cc1ccc(NC(=O)C(=O)C(C(=O)/C=C/c2ccccc2)C2OC(=O)c3ccccc32)c(C)c1 (stereo unspecified) | – | > 100 µM | > 100 µM | – | > 100 µM | – | > 100 µM | – | > 100 µM | – | > 100 µM | – | > 100 µM | – | > 100 µM | – | > 100 µM | – | > 100 µM | – |
| CC1=NN(c2ccccc2)C(=O)/C1=C\c1ccc([N+](=O)[O-])cc1 | – | > 100 µM | 53.3 µM | – | 91 µM | – | 83.3 µM | – | > 100 µM | – | 41.4 µM | – | 33 µM | – | 93.2 µM | – | 57.9 µM | – | > 100 µM | – |
| COc1cc(/C=C/c2ccc3c(Br)cc(Br)c(O)c3n2)ccc1O | 1.42 µM | 14.9 µM | 5.3 µM | 1.99 µM | 16.4 µM | 1.54 µM | 13.6 µM | 0.424 µM | 15.3 µM | 3.8 µM | 18.3 µM | 5.01 µM | 17.2 µM | 2.24 µM | 13 µM | 2.36 µM | 11 µM | 0.891 µM | 12.1 µM | 1.67 µM |
| N[C@H](COCc1ccccc1)c1ccccc1 | – | > 100 µM | > 100 µM | – | 57.5 µM | – | > 100 µM | – | > 79.4 µM | – | > 72.6 µM | – | 29.2 µM | – | > 72.3 µM | – | 39.1 µM | – | > 91.4 µM | – |
| CC1C=CC(OC(=O)C(C)(O)CCC(O)(C(=O)OC2CC(O)C(C(C)C)CC2(C)O)C(C)C)(C(C)C)CC1 (stereo unspecified) | 0.618 µM | 1.41 µM | 2.79 µM | 0.591 µM | 1.33 µM | 0.232 µM | 0.64 µM | 0.235 µM | 0.869 µM | 0.57 µM | 1.35 µM | 0.747 µM | 1.61 µM | 0.604 µM | 1.41 µM | 0.576 µM | 1.36 µM | 0.322 µM | 0.949 µM | 0.511 µM |
| Cc1ccccc1-n1c(N)c(-c2nc3ccccc3[nH]2)sc1=S | – | 88.5 µM | 37.1 µM | – | 45.4 µM | – | 57 µM | – | 71.7 µM | – | 62.4 µM | – | 49 µM | – | 72.5 µM | – | 50.3 µM | – | > 100 µM | – |
| Cc1cc(C)c(C2CNCc3cc4c(cc32)CNCC4c2c(C)cc(C)cc2C)c(C)c1 (stereo unspecified) | 5.97 µg/mL | 17.2 µg/mL | 15.4 µg/mL | 15.9 µg/mL | 30.4 µg/mL | 4.68 µg/mL | 18 µg/mL | 4.13 µg/mL | 14.2 µg/mL | 2.2 µg/mL | 4.45 µg/mL | 2.63 µg/mL | 7.49 µg/mL | 3.11 µg/mL | 11.5 µg/mL | 3.23 µg/mL | 9.18 µg/mL | 3.76 µg/mL | 13.4 µg/mL | 6.7 µg/mL |
